Source: ChEMBL document CHEMBL5375976, “Discovery of Inhibitory Fragments That Selectively Target Spire2-FMN2 Interaction” (J Med Chem, 2023)

Biological target: T1, Fermitin family homolog 2 (Homo sapiens) (UniProt Q96AC1)
T1 sequence (whole entry): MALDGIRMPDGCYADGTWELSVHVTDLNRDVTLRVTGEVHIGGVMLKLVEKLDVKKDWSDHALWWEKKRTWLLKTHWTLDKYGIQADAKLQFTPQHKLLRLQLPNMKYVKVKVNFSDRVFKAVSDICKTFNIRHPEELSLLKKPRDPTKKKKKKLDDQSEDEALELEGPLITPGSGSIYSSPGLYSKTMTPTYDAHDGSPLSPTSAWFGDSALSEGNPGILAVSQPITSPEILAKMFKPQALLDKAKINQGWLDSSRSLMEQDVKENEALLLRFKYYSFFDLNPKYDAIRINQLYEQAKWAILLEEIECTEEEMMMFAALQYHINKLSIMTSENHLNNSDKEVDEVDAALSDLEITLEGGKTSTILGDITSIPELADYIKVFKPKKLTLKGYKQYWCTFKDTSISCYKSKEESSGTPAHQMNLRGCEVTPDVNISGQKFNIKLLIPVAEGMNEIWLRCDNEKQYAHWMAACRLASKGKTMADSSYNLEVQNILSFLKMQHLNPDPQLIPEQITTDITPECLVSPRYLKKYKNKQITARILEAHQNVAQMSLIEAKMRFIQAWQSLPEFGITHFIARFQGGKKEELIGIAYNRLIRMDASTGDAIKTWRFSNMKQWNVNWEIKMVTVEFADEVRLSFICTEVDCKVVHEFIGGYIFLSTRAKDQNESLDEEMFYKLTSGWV
Description: Binding affinity to His6-tagged KIND2 (unknown origin) expressed in Escherichia coli BL21(DE3) assessed as change in melting temperature by DSF analysis

- ΔTm: 0 °C
SMILES: NCCNc1ccnc2cc(OCc3ccccc3)ccc12
